Results as given in patent publication US20200255828A1, “METHODS AND COMPOSITIONS FOR ALTERING FUNCTION AND STRUCTURE OF CHROMATIN LOOPS AND/OR DOMAINS” (THE BROAD INSTITUTE, INC., priority 2017, published 2020).
Entries after “also recorded” stand apart in the source; their conditions may differ.

Assays:
HCT-116 cells = assay: Loop reformation (Hi-C APA) after Rad21 degradation and recovery without transcription, replication or ATP; format: cell-based, human; conditions: Rad21 temporarily degraded and allowed to recover
Source text: Using the degron system, Applicants can directly measure the influence of cellular processes on loop formation (Vian et al, 2018). […] Applicants also tested interchromasomal cohesin-independent links requirement for ATP after cohesin degradation and observed that depletion of ATP strengthens the interactions between superenhancers (FIG. 23).

CTCF-AID cells = assay: Rescue experiments in the CTCF-AID cell line (Hi-C); format: cell-based, human; conditions: endogenous CTCF degraded by auxin
Source text: The protein CTCF is thought to act as an oriented brake to halt cohesin-mediated loop extrusion in one direction along the genome but not the other, but how this braking activity is mediated mechanistically is unknown. An important question regarding CTCF barrier activity is whether there is a protein domain mediating the ability to halt extrusion or whether CTCF halts cohesin via steric occlusion. As a proof of principle, Applicants introduced either (i) WT CTCF, (ii) CTCF lacking its N terminal domain, or (iii) CTCF lacking its C terminal domain by transfection into CTCF-AID cells. […] Applicants can systematically identify the key residues in the N terminus of CTCF that are necessary for barrier activity by transfecting plasmids expressing mutant CTCF proteins with tiled mutations on the N terminus and assaying via Hi-C after degradation of endogenous CTCF. Similarly, Applicants can develop HCT-116 degron lines for SA1, SA2, and SA1+SA2 double degron (the cohesin ring co-factors that are thought to mediate the interaction between cohesin and CTCF). By depleting endogenous SA protein, introducing SA proteins with tiled mutations across various domains, and assaying looping via Hi-C, Applicants can similarly identify the residues on the cohesin complex required for interaction with CTCF. […]

| Molecule | effect on loop formation during Rad21 recovery (HCT-116 cells) | rescue of the looping phenotype (CTCF-AID cells) |
| --- | --- | --- |
| CN1CC[C@H](c2c(O)cc(O)c3c(=O)cc(-c4ccccc4Cl)oc23)[C@H](O)C1 [flavopiridol] | does not block loop formation; also recorded: loop reformation occurs without issue |  |
| CC[C@H]1/C=C/C=C/C[C@@H](C)[C@H](O)[C@@](C)(O)C(=O)[C@@H](C)[C@H](O)[C@@H](C)C(=O)[C@@H](C)[C@H](O)[C@@H](C)/C=C/C(=O)O[C@@H]2[C@H](C)[C@H](CC1)O[C@]1(CC[C@H](C)[C@H](C[C@@H](C)O)O1)[C@H]2C [oligomycin] | does block loop formation; also recorded: loop formation requires ATP |  |
| Cc1cn([C@H]2C[C@H](O)[C@@H](CO)O2)c(=O)[nH]c1=O [thymidine] | does not block loop formation; also recorded: loop reformation occurs without issue |  |
| WT CTCF: wild-type CTCF introduced by transfection into CTCF-AID cells (protein) MEGDAVEAIVEESETFIKGKERKTYQRRREGGQEEDACHLPQNQTDGGEVVQDVNSSVQMVMMEQLDPTLLQMKTEVMEGTVAPEAEAAVDDTQIITLQVVNMEEQPINIGELQLVQVPVPVTVPVATTSVEELQGAYENEVSKEGLAESEPMICHTLPLPEGFQVVKVGANGEVETLEQGELPPQEDPSWQKDPDYQPPAKKTKKTKKSKLRYTEEGKDVDVSVYDFEEEQQEGLLSEVNAEKVVGNMKPPKPTKIKKKGVKKTFQCELCSYTCPRRSNLDRHMKSHTDERPHKCHLCGRAFRTVTLLRNHLNTHTGTRPHKCPDCDMAFVTSGELVRHRRYKHTHEKPFKCSMCDYASVEVSKLKRHIRSHTGERPFQCSLCSYASRDTYKLKRHMRTHSGEKPYECYICHARFTQSGTMKMHILQKHTENVAKFHCPHCDTVIARKSDLGVHLRKQHSYIEQGKKCRYCDAVFHERYALIQHQKSHKNEKRFKCDQCDYACRQERHMIMHKRTHTGEKPYACSHCDKTFRQKQLLDMHFKRYHDPNFVPAAFVCSKCGKTFTRRNTMARHADNCAGPDGVEGENGGETKKSKRGRKRKMRSKKEDSSDSENAEPDLDDNEDEEEPAVEIEPEPEPQPVTPAPPPAKKRRGRPPGRTNQPKQNQPTAIIQVEDQNTGAIENIIVEVKKEPDAEPAEGEEEEAQPAATDAPNGDLTPEMILSMMDR |  | rescue the looping phenotype |
